Reference: the NIST ThermoML archive (doi:10.1021/je0201323)

Experiments:
[1] = for surface tension liquid-gas: Pendant drop shape; for mass density: 101.3 kPa, Liquid, vibrating tube
[2] = xn = mol fraction of the nth substance listed; conditions: x1 = 1; for mass density: 101.3 kPa, Liquid, vibrating tube; for surface tension liquid-gas: Pendant drop shape

CC(C)=O [acetone]
[1]
Conditions	surface tension liquid-gas [mN/m]
287.81 K	23.94
297.82 K	22.78
307.86 K	21.59
317.86 K	20.33
327.88 K	19.01

CN(C)C=O [dimethylformamide]
[1]
Conditions	mass density [kg/m3]	surface tension liquid-gas [mN/m]
277.85 K	–	38.16
278.15 K	963	–
283.15 K	958.3	–
287.81 K	–	36.96
288.15 K	953.7	–
293.15 K	949.1	–
297.82 K	–	35.83
298.15 K	944.5	–
303.15 K	939.9	–
307.86 K	–	34.65
308.15 K	935.4	–
313.15 K	930.9	–
317.86 K	–	33.37
318.15 K	926.3	–
323.15 K	921.7	–
327.88 K	–	32.03
327.89 K	–	32.03
328.15 K	917.9	–
333.15 K	913.2	–

CCCCCCC [heptane] + Cc1ccccc1
[2]
Conditions	mass density [kg/m3]	surface tension liquid-gas [mN/m]
278.15 K	696.3	–
283.15 K	692.2	–
287.81 K	–	20.7
288.15 K	688	–
293.15 K	683.8	–
297.82 K	–	19.63
298.15 K	679.5	–
303.15 K	675.2	–
307.86 K	–	18.68
308.15 K	670.9	–
313.15 K	666.5	–
317.86 K	–	17.76
318.15 K	662.1	–
323.15 K	657.7	–
327.88 K	–	16.68
328.15 K	653.2	–
333.15 K	648.7	–

CN1CCCC1=O [N-methylpyrrolidone]
[1]
Conditions	surface tension liquid-gas [mN/m]
277.84 K	42.61
287.8 K	41.35
297.81 K	40.25
307.85 K	39.1
317.85 K	37.91
327.89 K	36.8
337.88 K	35.66

C1CCCCC1 [cyclohexane]
[1]
Conditions	surface tension liquid-gas [mN/m]
279.33 K	26.37
282.82 K	25.99
287.81 K	25.34
297.82 K	24.2
307.86 K	23.02
317.86 K	21.84
327.88 K	20.71
337.93 K	19.57

Cc1ccccc1 [toluene] + CN(C)C=O
[2]
Conditions	mass density [kg/m3]	surface tension liquid-gas [mN/m]
278.15 K	880.3	–
283.15 K	875.9	–
287.81 K	–	28.93
288.15 K	871.4	–
293.15 K	866.9	–
297.82 K	–	27.76
298.15 K	862.4	–
303.15 K	857.8	–
307.86 K	–	26.6
308.15 K	853.2	–
313.15 K	848.6	–
317.86 K	–	25.46
318.15 K	843.9	–
323.15 K	839.2	–
327.88 K	–	24.29
328.15 K	834.5	–
333.15 K	829.8	–

Cc1ccccc1 [toluene]
[1]
Conditions	mass density [kg/m3]	surface tension liquid-gas [mN/m]
277.85 K	–	30.11
278.15 K	880.3	–
283.15 K	875.9	–
287.81 K	–	28.93
288.15 K	871.4	–
293.15 K	866.9	–
297.82 K	–	27.76
298.15 K	862.4	–
302.83 K	–	27.17
303.15 K	857.8	–
307.86 K	–	26.6
308.15 K	853.2	–
312.87 K	–	26.03
313.15 K	848.6	–
317.86 K	–	25.46
318.15 K	843.9	–
323.15 K	839.2	–
327.88 K	–	24.29
328.15 K	834.5	–
333.15 K	829.8	–
337.88 K	–	23.22

CCCCCCC [heptane]
[1]
Conditions	mass density [kg/m3]	surface tension liquid-gas [mN/m]
277.93 K	–	21.73
278.15 K	696.3	–
282.83 K	–	21.18
283.15 K	692.2	–
287.81 K	–	20.7
288.15 K	688	–
292.81 K	–	20.17
293.15 K	683.8	–
297.82 K	–	19.63
298.15 K	679.5	–
302.83 K	–	19.15
303.15 K	675.2	–
307.86 K	–	18.68
308.15 K	670.9	–
312.86 K	–	18.17
313.15 K	666.5	–
317.86 K	–	17.76
318.15 K	662.1	–
322.86 K	–	17.22
323.15 K	657.7	–
327.88 K	–	16.68
328.15 K	653.2	–
332.91 K	–	16.21
333.15 K	648.7	–
337.88 K	–	15.79
342.92 K	–	15.29
